Test results: patent US8106203B2, “Assay methods using chemiluminescent detection of peroxidase” (Lumigen, Inc., priority 2001, dated 2012)
One block for each compound: values may come before it.

Assays:
HRP [1] = molecular target: T1, HRP (Armoracia rusticana, UniProt P00433); assay: Chemiluminescent detection of HRP with compound 1; type: biochemical, horseradish
T1 sequence (P00433 31-338): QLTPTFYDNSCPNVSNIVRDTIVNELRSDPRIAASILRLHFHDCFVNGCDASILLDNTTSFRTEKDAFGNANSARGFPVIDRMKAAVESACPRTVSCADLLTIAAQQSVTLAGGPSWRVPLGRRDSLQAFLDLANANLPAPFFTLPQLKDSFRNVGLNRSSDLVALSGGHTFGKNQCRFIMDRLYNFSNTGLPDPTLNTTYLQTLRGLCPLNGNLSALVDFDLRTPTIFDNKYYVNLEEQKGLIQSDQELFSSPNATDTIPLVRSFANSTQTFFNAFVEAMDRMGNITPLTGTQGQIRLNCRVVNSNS
Method: Reagent compositions comprising 0.01 M tris buffer, pH 7.0, 0.5 mm urea peroxide, 0.1 mM p-phenylphenol, 1 mM EDTA, 0.025% Tween 20 and 5×10^−5 M compound 1 were tested for production of chemiluminescence by reacting triplicate 100 μL aliquots with 10 μL of HRP in the range 1.4×10^−15 to 1.4×10^−20 moles. Light production ensued upon mixing and reached maximum intensity in about 1 min.

HRP [2] = molecular target: T1, HRP; assay: Comparison of signal intensity (Example 9): chemiluminescence on reaction of reagent with HRP; type: biochemical, horseradish; settings: 3.5×10^−16 moles of HRP
Method: Reagent compositions comprising 0.01 M tris buffer, pH 8, 0.5 mM urea peroxide, 0.1 mM p-phenylphenol, […], 0.025% Tween 20, and 5×10^−5 M of each compound in the table below except the compound designated Ref. 1 were tested for production of chemiluminescence by reacting a 100 μL aliquot with 3.5×10^−16 moles of HRP. The reagent formulation for Ref. 1 comprised 0.05 M tris buffer, pH 8.6, 0.25 mM urea peroxide, 0.05 mM p-phenylphenol, 0.5 mM EDTA, 0.0125% Tween 20, and 3.3×10^−4 M Ref. 1. For comparison, data are provided for reference compounds 1 and 2.

HRP-labeled antibody = molecular target: T2, HRP-labeled antibody (Armoracia rusticana, UniProt P00433); assay: Western blot of β-galactosidase via HRP-labeled antibody on PVDF membrane; type: biochemical
T2 sequence (P00433 31-338): T1 sequence (P00433 31-338)
Method: A western blot assay of β-galactosidase as the test antigen was conducted according to the procedure described in U. K. Laemmli, Nature (London), 227, 680 (1970) using a PVDF membrane. β-Galactosidase standards in the range of 5000-5 pg. The detection reagent containing Compound 1 permitted detection to be performed in under 1 minute.

peroxidase = assay: Chemiluminescence on reaction with peroxide and a peroxidase (general); type: biochemical; settings: mixtures of double bond isomers
Excerpt: Reaction of ketene dithioacetal compounds of formula I, including those shown above, with peroxide and a peroxidase generate chemiluminescence which rapidly reaches very high intensity. Maximum light emission is achieved in one minute or less and remains constant for several minutes. […] No other known chemiluminescent peroxidase substrate generates high intensity chemiluminescence so rapidly. This kinetic behavior in unexpected and contrasts with the chemiluminescence time profile of structurally related compounds disclosed in the aforementioned U.S. Pat. No. 5,922,558. For example, a compound having the formula:
[drawing 18] reacted with HRP was disclosed to reach maximum chemiluminescence intensity in 7 min. The ability of the compounds of the present invention to reach a stable maximum light intensity so rapidly makes them more suitable than other chemiluminescent compounds for peroxidase detection in the rapid high throughput assays in demand today.
Compounds and compositions of the present invention are useful in a method to produce chemiluminescence by reaction with a peroxidase. Reaction of a compound of the invention with a peroxidase and a peroxide in an aqueous buffer solution produces easily detectable visible chemiluminescence. Light intensity reaches a maximum level rapidly at room temperature, typically in about 1 minute. […]

HRP [3] = molecular target: T1, HRP; assay: Comparison of signal intensity (Example 10): maximum signal with HRP; type: biochemical, horseradish; settings: 3×10^−4 M compound, 0.025 M tris pH 8, 2.5 mM urea peroxide, 4 mM p-hydroxycinnamic acid; 3.5×10^−16 moles of HRP
Method: (§1) The maximum signal produced by each of compounds 14, and 27-29 was compared by reacting a 100 μL aliquot of reagent compositions comprising 0.025 M tris buffer, pH 8, 2.5 mM urea peroxide, 4 mM p-hydroxycinnamic acid, 0.5 mM EDTA, 0.1% Tween 20, and 3×10^−4 M of the test compound with 3.5×10^−16 moles of HRP. Each reagent reached maximum light intensity in about 1 minute.

HRP [4] = molecular target: T1, HRP; assay: Comparison of signal intensity (Example 17): maximum signal with HRP; type: biochemical, horseradish; settings: 3.5×10^−16 moles of HRP
Method: as §1, with “40-51” for “14, and 27-29”, “either 1 mM, 0.3 mM, 0.15 mM or 0.05 mM” for “3×10^−4 M”, “1-3 minutes.” for “about 1 minute.”

[5] = Solubility in the aqueous formulation; type: physicochemical; settings: 0.025 M tris pH 8 formulation with 0.1% Tween 20
HRP [6] = molecular target: T1, HRP; assay: Chemiluminescent detection of HRP with compounds 52 and 53; type: biochemical, horseradish; settings: 3×10^−4 M compound, HRP 1.4×10^−16 to 1.4×10^−21 moles
Method: Reagent compositions comprising 0.025 M tris buffer, pH 8.0, 2.5 mM urea peroxide, 4 mM p-hydroxycinnamic acid, 0.5 mM EDTA, 0.1% Tween 20 and 3×10^−4 M compound 52 or 53 were tested for production of chemiluminescence by reacting triplicate 100 μL aliquots with 10 μL of HRP in the range 1.4×10^−16 to 1.4×10^−21 moles. […] The relation between peak chemiluminescence intensity and amount of enzyme is depicted in FIG. 8.

HRP [7] = molecular target: T1, HRP; assay: Stability of working solutions by solution assay; type: physicochemical, horseradish
Method: Reagent stability of the working solutions of compound 53 and compound 46 was assessed by preparing the working solution by combining 50 μL aliquots of the two component solutions and storing the mixed solutions at 4° C. or room temperature. The working solution contained 0.025 M tris buffer, pH 8, 2.5 mM urea peroxide, 4 mm p-hydroxycinnamic acid, 0.5 mM EDTA, 0.1% Tween 20, and 0.05 mM of the substrate. Chemiluminescent assays were run with 3.5×10^−16 moles of HRP at 25° C. Maximum intensity results were compared to the values obtained with fresh reagent prepared from the individual components stored at 4° C. […] The composition containing compound 53 was unchanged after four months at 4° C., that containing compound 46 was unchanged after 9 months at 4° C.

[8] = 5×10^−5 M compound, 0.01 M tris pH 8, 0.5 mM urea peroxide, 0.1 mM p-phenylphenol, 0.025% Tween 20
[9] = 1 mM test compound (Formulation 1.0)

time to reach maximum intensity (HRP [1]; 5×10^−5 M compound 1, pH 7.0, p-phenylphenol): about 1 min
log-log plot of chemiluminescence intensity vs. amount of enzyme (HRP [1]; HRP 1.4×10^−15 to 1.4×10^−20 moles): linear over the entire range tested
Signal/Background (HRP [2]; [8]): 8060
lower abundance bands able to be imaged (HRP-labeled antibody; β-galactosidase): ≤ 1 pg
time in which detection could be performed (HRP-labeled antibody; β-galactosidase standards 5000-5 pg): under 1 minute
Structure (SMILES): CSC(SC)=C1c2ccccc2N(c2ccccc2)c2ccccc21 [Compound 1]

Signal/Background (HRP [2]; [8]): 953
Structure (SMILES): CSC(SC)=C1c2ccccc2N(C)c2ccccc21 [Compound 2]

Structure (SMILES): c1ccc(CSC(SCc2ccccc2)=C2c3ccccc3N(c3ccccc3)c3ccccc32)cc1 [Compound 3]
generation of chemiluminescence (peroxidase): Compounds 3, 4 and 6 were obtained as mixtures of double bond isomers. Each of these compounds generates chemiluminescence in the present invention.

Structure (SMILES): CCCCCCCCSC(SC)=C1c2ccccc2N(c2ccccc2)c2ccccc21 [Compound 6]
generation of chemiluminescence (peroxidase): Compounds 3, 4 and 6 were obtained as mixtures of double bond isomers. Each of these compounds generates chemiluminescence in the present invention.

Structure (SMILES): CCCCCCCCSC(SCCCS(=O)(=O)[O-])=C1c2ccccc2N(c2ccccc2)c2ccccc21.[Li+] [Compound 13]
Signal/Background (HRP [2]; [8]): 7626

Signal/Background (HRP [3]): 6717
Structure (SMILES): CSC(SCCCS(=O)(=O)[O-])=C1c2ccccc2N(Cc2ccc(Cl)cc2)c2ccccc21.[Na+] [Compound 28]

Signal/Background (HRP [3]): 6621
Structure (SMILES): COc1ccc(CN2c3ccccc3C(=C(SC)SCCCS(=O)(=O)[O-])c3ccccc32)cc1.[Na+] [Compound 29]

Signal/Background (HRP [3]): 26000
Structure (SMILES): O=S(=O)([O-])CCCSC(SCc1ccccc1)=C1c2ccccc2N(Cc2ccccc2)c2ccccc21.[Na+] [Compound 38]

Signal/Background (HRP [4]; [9]): 4011
Structure (SMILES): CSC(SC)=C1c2ccccc2N(Cc2ccc(O)cc2)c2ccccc21 [Compound 40]

Signal/Background (HRP [4]; [9]): 14000
Structure (SMILES): O=S(=O)([O-])CCCSC(SCc1ccc(Cl)cc1)=C1c2ccccc2N(Cc2ccccc2)c2ccccc21.[Na+] [Compound 41]

Signal/Background (HRP [4]; [9]): 9100
Structure (SMILES): O=S(=O)([O-])CCCSC(SCc1ccccc1)=C1c2ccccc2N(c2ccccc2)c2ccccc21.[Na+] [Compound 42]

Signal/Background (HRP [4]; 0.3 mM test compound): 2102
Structure (SMILES): OC1CSC(=C2c3ccccc3N(c3ccccc3)c3ccccc32)SC1 (centres unmarked) [Compound 45]

Signal/Background (HRP [4]; [9]): 7228
Structure (SMILES): O=S(=O)([O-])CCCOC1CSC(=C2c3ccccc3N(Cc3ccccc3)c3ccccc32)SC1.[Na+] (centres unmarked) [Compound 47]

Signal/Background (HRP [4]; [9]): 4219
Structure (SMILES): O=P([O-])([O-])OCCCOC1CSC(=C2c3ccccc3N(Cc3ccccc3)c3ccccc32)SC1.[Na+].[Na+] (centres unmarked) [Compound 48]

solubility in the aqueous formulation [5]: very poorly soluble
Signal/Background (HRP [4]; 0.05 mM test compound): 4853
Structure (SMILES): c1ccc(CN2c3ccccc3C(=C3SCCOCCOCCOCCOCCS3)c3ccccc32)cc1 [Compound 49]

Signal/Background (HRP [4]; 0.3 mM test compound): 1651
Structure (SMILES): O=S(=O)([O-])CCCOCCCN1c2ccccc2C(=C2Sc3ccccc3S2)c2ccccc21.[Na+] [Compound 50]

solubility in the aqueous formulation [5]: very poorly soluble
Signal/Background (HRP [4]; 0.05 mM test compound): 4264
Structure (SMILES): CN1c2ccccc2C(=C2Sc3ccccc3S2)c2ccccc21 [Compound 51]

rise of light to maximum intensity (HRP [6]): reached maximum intensity rapidly
Signal/Background (HRP [4]; 0.15 mM test compound): 5840
Structure (SMILES): O=S(=O)([O-])CCCOCCCSC(SCCCO)=C1c2ccccc2N(Cc2ccccc2)c2ccccc21.[Na+] [Compound 52]

working solution composition after storage (HRP [7]; four months at 4° C.): unchanged
reagent performance on storage of working solution (HRP [7]; up to three weeks at room temperature, 0.05 mM substrate): no deterioration of reagent performance
rise of light to maximum intensity (HRP [6]): reached maximum intensity rapidly
Signal/Background (HRP [4]; 0.15 mM test compound): 5742
Structure (SMILES): CSC(SCCCOCCCS(=O)(=O)[O-])=C1c2ccccc2N(Cc2ccccc2)c2ccccc21.[Na+] [Compound 53]

Signal/Background (HRP [4]; 0.15 mM test compound): 2502
Structure (SMILES): CSC(SCCCSCCCS(=O)(=O)[O-])=C1c2ccccc2N(c2ccccc2)c2ccccc21.[Na+] [Compound 54]

Signal/Background (HRP [4]; 0.3 mM test compound): 5408
Structure (SMILES): CSC(SCCCOS(=O)(=O)[O-])=C1c2ccccc2N(Cc2ccccc2)c2ccccc21.[Na+] [Compound 55]

Structure (SMILES): CN1c2ccccc2C(=C(OP(=O)([O-])[O-])Sc2ccccc2)c2ccccc21.[Na+].[Na+] [Ref. 1, reference compound]
Signal/Background (HRP [2]; Ref. 1 formulation: 3.3×10^−4 M, 0.05 M tris pH 8.6, 0.25 mM urea peroxide, 0.05 mM p-phenylphenol): 53
chemiluminescence intensity and exposure needed, compared with the compound 1 reagent (HRP-labeled antibody; β-galactosidase): lower intensity chemiluminescence and required longer exposures
lower abundance bands able to be imaged (HRP-labeled antibody; β-galactosidase): not possible to image

Signal/Background (HRP [2]; [8]): 325
Structure (SMILES): COC(Sc1ccccc1)=C1c2ccccc2N(C)c2ccccc21 [Ref. 2, reference compound]
